The record followed here is patent US20240280589A1, “USE OF FIBRONECTIN IN PREDICTING PREECLAMPSIA” (Sinai Health System, priority 2023, published 2024).

Holding throughout (type): cell-based, human
Test [1] has as its system JEG3 cells. Kind of test: Immunofluorescence co-localization of fibronectin with CD63/RAB7 in JEG3 cells.
For test [2], the system named is placental villous explants. Kind of test: Fibronectin in sEVs from placental villous explant culture. The settings on record: E-PE villous explants maintained at 3% O2, Hinokitiol. How it is done:
Villous explants were isolated and cultured in 12-well plates with mesh inserts, from term control (n=3) and E-PE placentae (n=3). Term explants were maintained at normoxia (8% O2) or hypoxia (3% O2), while E-PE explants were maintained at 3% O2 (constituting their normoxia) and treated with […] Hinokitiol. Following incubation with their respective treatments, explant tissue was snap-frozen in liquid nitrogen for protein extraction and downstream analyses, while small extracellular vesicles (sEVs) were isolated from conditioned media by ultrafiltration using Amicon® Ultra-4 Centrifugal Filter Units (UFC8100, Millipore Sigma). […] Subsequent Western blotting was performed.

Test [3] has as its system JEG3 cells. The experiment in a line: Western blot for fibronectin in sEVs from JEG3 cell conditioned media. How it is done:
Subsequent Western blotting was performed.
(In general: In western blotting, separated proteins are transferred to a membrane and probed.)

In the next test the test system is preeclampsia pMSCs. Kind of test: Exposure of preeclampsia placental mesenchymal stromal cells (pMSCs).

With `CC(C)c1cccc(=O)c(O)c1` [Hinokitiol], the “Pearson's Correlation Coefficient between fibronectin and CD63” value with JEG3 cells [1] (3% O2 + 1 μM Hinokitiol) came out at 0.31. Besides, the “fibronectin co-localization with late endosomal marker RAB7 and sEV marker CD63” value with JEG3 cells [1] (3% O2, relative to hypoxia alone) is “attenuated fibronectin co-localization”. Also, in test [2], the “fibronectin increase in explant-derived sEVs” value was “attenuated”. For the same compound, the sEV fibronectin content result with JEG3 cells [3] (JEG3 cells at 3% O2, 24 hours, 1 μM, normalized to CD63) was “significantly reduced sEV fibronectin content to control levels”. For the same compound, in the test with JEG3 cells [3] (JEG3 cells at 21% O2), the sEV fibronectin levels result is listed as “no discernible effect”. Besides, in the test with preeclampsia pMSCs, the fibronectin fibrillar deposition result is listed as “improved” and the “labile (useable) intracellular iron pool” value is reported as “restored”.
